Among the data in the Kinase Knowledgebase extract (Sharma et al. 2016) are IC50 values, retold here.

The target of assay [1] is EGFR (human), P00533 [WT].
Assay [2] addresses EGFR (Human), P00533 [T790M/L858R].

Bounds are passed on as bounds.

EGFR (human), P00533 [WT], sequence (P00533 whole entry, looked up): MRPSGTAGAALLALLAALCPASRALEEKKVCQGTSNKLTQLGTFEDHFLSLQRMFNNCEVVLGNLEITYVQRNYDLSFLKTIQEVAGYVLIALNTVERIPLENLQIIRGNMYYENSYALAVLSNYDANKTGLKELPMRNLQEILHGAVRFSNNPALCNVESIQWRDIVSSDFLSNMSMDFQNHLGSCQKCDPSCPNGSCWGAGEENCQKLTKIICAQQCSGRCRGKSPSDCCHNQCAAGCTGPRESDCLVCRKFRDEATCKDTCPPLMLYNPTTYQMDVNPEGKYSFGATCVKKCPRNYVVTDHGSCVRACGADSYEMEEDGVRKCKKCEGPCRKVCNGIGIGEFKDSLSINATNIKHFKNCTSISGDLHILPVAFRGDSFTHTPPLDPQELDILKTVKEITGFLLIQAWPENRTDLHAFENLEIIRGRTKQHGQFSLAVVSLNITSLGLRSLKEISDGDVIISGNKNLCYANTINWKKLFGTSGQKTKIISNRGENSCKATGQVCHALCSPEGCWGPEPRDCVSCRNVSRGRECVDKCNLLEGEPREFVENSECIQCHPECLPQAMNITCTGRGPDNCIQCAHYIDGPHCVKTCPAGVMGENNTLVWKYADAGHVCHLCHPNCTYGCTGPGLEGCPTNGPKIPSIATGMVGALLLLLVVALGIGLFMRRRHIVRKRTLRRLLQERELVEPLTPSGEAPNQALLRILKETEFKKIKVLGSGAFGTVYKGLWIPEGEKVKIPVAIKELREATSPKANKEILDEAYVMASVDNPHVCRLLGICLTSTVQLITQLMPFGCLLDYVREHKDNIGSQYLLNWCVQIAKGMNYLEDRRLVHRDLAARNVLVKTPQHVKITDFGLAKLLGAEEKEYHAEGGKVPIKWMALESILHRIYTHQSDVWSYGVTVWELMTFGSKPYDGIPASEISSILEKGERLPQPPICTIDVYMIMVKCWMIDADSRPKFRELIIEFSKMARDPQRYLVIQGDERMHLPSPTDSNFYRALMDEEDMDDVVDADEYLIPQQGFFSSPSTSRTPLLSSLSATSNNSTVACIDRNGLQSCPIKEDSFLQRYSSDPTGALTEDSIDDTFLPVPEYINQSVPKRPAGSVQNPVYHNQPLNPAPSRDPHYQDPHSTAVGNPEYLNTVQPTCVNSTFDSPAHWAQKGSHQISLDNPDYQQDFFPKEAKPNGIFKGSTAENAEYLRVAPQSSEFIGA
EGFR (Human), P00533 [T790M/L858R], sequence (P00533 whole entry T790M/L858R, looked up): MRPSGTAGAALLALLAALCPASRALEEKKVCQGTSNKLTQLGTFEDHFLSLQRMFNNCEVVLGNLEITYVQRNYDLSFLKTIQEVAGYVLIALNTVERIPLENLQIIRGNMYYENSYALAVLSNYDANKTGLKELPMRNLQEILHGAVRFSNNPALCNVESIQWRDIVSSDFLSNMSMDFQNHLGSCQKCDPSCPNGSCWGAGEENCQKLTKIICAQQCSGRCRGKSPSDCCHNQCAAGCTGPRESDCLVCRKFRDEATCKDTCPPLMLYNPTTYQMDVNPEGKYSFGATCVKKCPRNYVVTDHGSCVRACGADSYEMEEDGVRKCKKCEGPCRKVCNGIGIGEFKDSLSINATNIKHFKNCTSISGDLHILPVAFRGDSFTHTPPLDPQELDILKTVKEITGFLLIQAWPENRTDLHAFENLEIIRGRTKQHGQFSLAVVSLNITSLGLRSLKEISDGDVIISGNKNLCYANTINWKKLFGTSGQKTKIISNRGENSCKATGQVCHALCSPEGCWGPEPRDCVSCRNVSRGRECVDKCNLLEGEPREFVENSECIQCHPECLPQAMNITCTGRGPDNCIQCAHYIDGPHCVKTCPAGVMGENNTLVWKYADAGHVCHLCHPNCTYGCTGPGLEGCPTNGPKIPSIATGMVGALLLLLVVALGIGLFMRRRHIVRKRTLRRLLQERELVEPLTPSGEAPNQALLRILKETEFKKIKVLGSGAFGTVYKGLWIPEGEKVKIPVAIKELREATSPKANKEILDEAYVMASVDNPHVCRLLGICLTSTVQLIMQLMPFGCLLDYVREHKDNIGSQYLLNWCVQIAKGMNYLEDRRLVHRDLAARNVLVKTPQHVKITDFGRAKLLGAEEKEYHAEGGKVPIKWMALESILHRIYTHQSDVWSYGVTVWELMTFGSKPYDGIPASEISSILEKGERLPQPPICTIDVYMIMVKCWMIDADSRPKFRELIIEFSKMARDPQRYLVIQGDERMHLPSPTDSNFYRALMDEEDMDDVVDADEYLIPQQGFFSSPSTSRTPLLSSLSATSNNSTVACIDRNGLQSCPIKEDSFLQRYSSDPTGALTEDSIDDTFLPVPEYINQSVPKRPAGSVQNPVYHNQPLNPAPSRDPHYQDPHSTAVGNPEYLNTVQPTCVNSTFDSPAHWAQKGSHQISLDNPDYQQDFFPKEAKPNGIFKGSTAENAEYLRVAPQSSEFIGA

What is called IC50 is the point on the concentration scale where inhibition reaches its midpoint. A low value points to inhibition by little substance. With `C=CC(=O)Nc1cccc(Nc2cc(Nc3ccc(OCc4ccccn4)c(Cl)c3)ncn2)c1`, the IC50 in assay [1] is ≤ 10 nM. With `C=CC(=O)N(C)c1cccc(Nc2cc(Nc3ccc(Oc4ccccc4)cc3)ncn2)n1`, in assay [1], the half-inhibitory concentration (IC50) was ≤ 10 nM.

Regarding `C=CC(=O)Nc1cccc(Nc2cc(Nc3ccccc3)ncn2)c1`, the IC50 in assay [1] is ≤ 10 nM.

`C=CC(=O)Nc1cccc(Nc2cc(Nc3ccc(Br)cc3F)ncn2)c1`: in assay [1], the IC50 was ≤ 10 nM.

Turning to `C=CC(=O)Nc1cccc(Nc2cc(Nc3cccc(Oc4ccccc4)c3)ncn2)c1`, the IC50 in assay [1] was ≤ 10 nM. Take `Cc1cccc(Nc2cc(Nc3cccc(NC(=O)/C=C/CN(C)C)c3)ncn2)c1`: the IC50 in assay [1] is ≤ 10 nM.

For `CN(C)C/C=C/C(=O)Nc1cccc(Nc2cc(Oc3ccc(F)c(Cl)c3)ncn2)c1`, in assay [1], the IC50 was ≤ 10 nM. `C=CC(=O)Nc1cccc(Nc2cc(Oc3ccc(Oc4ccccc4)cc3)ncn2)n1`: the IC50 in assay [1] is ≤ 10 nM.

Regarding `Cc1cccc(Oc2cc(Nc3cccc(NC(=O)C=CCN(C)C)n3)ncn2)c1`, the half-maximal inhibitory concentration (IC50) in assay [1] was ≤ 10 nM. Regarding `C#Cc1cccc(Nc2cc(Nc3cccc(NC(=O)C=C)c3)ncn2)c1`, in assay [1], the concentration for half-maximal inhibition (IC50) is ≤ 10 nM. On the same count and under the same terms, with `C=CC(=O)Nc1cccc(Nc2cc(N(C)c3ccccc3)ncn2)c1` the figure was ≤ 10 nM. With `C/C=C/C(=O)Nc1cccc(Nc2cc(Nc3cccc(Br)c3)ncn2)c1`, in assay [1], the IC50 is ≤ 10 nM. Still for that read-out and setting: the value for `C=CS(=O)(=O)Nc1cccc(Nc2cc(Oc3cccc(C(F)(F)F)c3)ncn2)c1` was ≤ 10 nM; that for `C=CS(=O)(=O)Nc1cccc(Nc2cc(Nc3cccc(C)c3)ncn2)c1` was ≤ 10 nM. As to `C=CC(=O)Nc1cccc(Nc2cc(Nc3ccc(Oc4ccccc4)cc3)ncn2)c1`, the 50% inhibitory concentration (IC50) in assay [1] was ≤ 10 nM.

Take `CN(C)C/C=C/C(=O)Nc1cccc(Nc2cc(Nc3ccccc3)ncn2)n1`: in assay [1], the 50% inhibitory concentration (IC50) was ≤ 10 nM. Regarding `C=CS(=O)(=O)Nc1cccc(Nc2cc(Nc3ccc(OCc4cccc(F)c4)c(Cl)c3)ncn2)c1`, in assay [1], the IC50 was ≤ 10 nM. With `CN(C)C/C=C/C(=O)Nc1cccc(Nc2cc(Oc3ccc(Oc4ccccc4)cc3)ncn2)n1`, the half-inhibitory concentration (IC50) in assay [1] was ≤ 10 nM. In the case of `C=CC(=O)Nc1cccc(Nc2cc(Oc3cccc(OC)c3)ncn2)n1`, in assay [1], the half-inhibitory concentration (IC50) is ≤ 10 nM. `N#CC1(C(=O)Nc2cccc(Nc3cc(Nc4ccc(F)c(Cl)c4)ncn3)c2)CC1`: the 50% inhibitory concentration (IC50) in assay [1] was ≤ 10 nM.

As for `CN(C)C/C=C/C(=O)Nc1cccc(Nc2cc(Nc3ccc(OCc4ccccn4)c(Cl)c3)ncn2)c1`, the half-maximal inhibitory concentration (IC50) in assay [1] is ≤ 10 nM.

With `CC=CC(=O)c1cccc(Nc2cc(Nc3ccc(Oc4ccccc4)cc3)ncn2)c1`, the IC50 in assay [1] was ≤ 10 nM. Turning to `Cc1ccc(NC(=O)/C=C/CN(C)C)cc1Nc1cc(Nc2ccc(F)c(Cl)c2)ncn1`, the concentration for half-maximal inhibition (IC50) in assay [1] is ≤ 10 nM. For `CN(C)C/C=C/C(=O)Nc1cccc(Nc2cc(Nc3ccc(F)c(Cl)c3)ncn2)c1`, the half-inhibitory concentration (IC50) in assay [1] is ≤ 10 nM. `C=CC(=O)Nc1cccc(Nc2cc(Nc3cccc(Br)c3)ncn2)c1`: the concentration for half-maximal inhibition (IC50) in assay [1] was ≤ 10 nM. As to `C=CC(=O)Nc1cccc(Nc2cc(Oc3cccc(C(F)(F)F)c3)ncn2)c1`, the IC50 in assay [1] was ≤ 10 nM. Consider `C=CC(=O)Nc1ccc(Nc2cc(Nc3cccc(Br)c3)ncn2)cc1`, for which the IC50 in assay [1] was ≤ 10 nM. On the same count and under the same terms, the value for `O=C(Nc1cccc(Nc2cc(Nc3ccc(F)c(Cl)c3)ncn2)c1)C1(C(F)(F)F)CC1` was ≤ 10 nM. The same measure, in the same setting: with `CC#CC(=O)c1cccc(Nc2cc(Nc3ccc(Oc4ccccc4)cc3)ncn2)c1` the figure was ≤ 10 nM; with `C=CC(=O)N1CCCC(Nc2cc(Nc3ccc(F)c(Cl)c3)ncn2)C1` (stereo not drawn), ≤ 10 nM. For the compound `O=C(CCl)Nc1cccc(Nc2cc(Nc3ccc(F)c(Cl)c3)ncn2)c1`, the IC50 in assay [1] was ≤ 10 nM. `C=CC(=O)Nc1cccc(Nc2cc(N3CCc4ccccc43)ncn2)c1`: in assay [1], the IC50 was ≤ 10 nM.

For `C=CC(=O)Nc1cccc(Nc2cc(Oc3cccc(C)c3)ncn2)n1`, the half-maximal inhibitory concentration (IC50) in assay [1] is ≤ 10 nM. Regarding `C=CC(=O)N1CCC(Nc2cc(Nc3ccc(F)c(Cl)c3)ncn2)C1` (stereo not drawn), the IC50 in assay [1] is ≤ 10 nM. Turning to `C=CS(=O)(=O)Nc1cccc(Nc2cc(Nc3ccc(F)c(Cl)c3)ncn2)c1`, the IC50 in assay [1] is ≤ 10 nM. As for `C=CC(=O)Nc1cccc(Nc2cc(Nc3cccc(C)c3)ncn2)c1`, the IC50 in assay [1] was ≤ 10 nM. With `C=CC(=O)Nc1cccc(Nc2cc(Oc3ccc(OC)cc3)ncn2)n1`, the IC50 in assay [1] was ≤ 10 nM. Regarding `CC(Cl)C(=O)Nc1cccc(Nc2cc(Nc3ccc(F)c(Cl)c3)ncn2)c1` (stereo not drawn), the IC50 in assay [1] was ≤ 10 nM. Regarding `C=CC(=O)Nc1cccc(Nc2cc(Nc3ccc(F)c(Cl)c3)ncn2)c1`, in assay [1], the half-inhibitory concentration (IC50) was ≤ 10 nM. Same read-out and setting: with `C=CC(=O)Nc1cccc(Nc2cc(Nc3ccccc3)ncn2)n1` the figure was ≤ 10 nM. As for `C=CC(=O)Nc1cccc(Nc2cc(Nc3ccc(Oc4ccccc4)cc3)ncn2)n1`, in assay [1], the IC50 is ≤ 10 nM.

For the compound `CN(C)C/C=C/C(=O)Nc1cccc(Nc2cc(Nc3ccc(OCc4cccc(F)c4)c(Cl)c3)ncn2)c1`, in assay [1], the IC50 is ≤ 10 nM. Consider `O=C(C=CCN1CCCC1)Nc1cccc(Nc2cc(Nc3ccc(F)c(Cl)c3)ncn2)c1`, for which the IC50 in assay [1] and in assay [2] was ≤ 10 nM throughout. As for `COc1ccc(NC(=O)/C=C/CN(C)C)cc1Nc1cc(Nc2ccc(F)c(Cl)c2)ncn1`, in assay [1], the IC50 was ≤ 10 nM.

On to `CN(C)C/C=C/C(=O)Nc1cccc(Nc2cc(Nc3ccc(F)c(Cl)c3)ncn2)n1`, for which the IC50 in assay [1] and in assay [2] was ≤ 10 nM throughout. `CN(C)C/C=C/C(=O)N(C)c1cccc(Nc2cc(Nc3ccc(Oc4ccccc4)cc3)ncn2)n1`: the half-inhibitory concentration (IC50) in assay [1] is ≤ 10 nM.
